{
  "source": "ChEMBL document CHEMBL5537170",
  "about": "“Design, Synthesis, and Anti-Osteoporotic Characterization of Arginine N-Glycosylated Teriparatide Analogs via the Silver-catalyzed Solid-Phase Glycosylation Strategy” (J Med Chem, 2024)",
  "note": "*1 amine or outer side, *2 acyl side, *3 side chain or, on linkers, in order; H or OH if unused. Where a SMILES comes first, the peptide text is derived from it. [ ]: non-standard residue; d: D form. X3 = CC(=O)N[C@@H]1[C@@H](O)[C@H](O)[C@@H](CO)O[C@H]1NC(=N)NCCC[C@H](N[*:1])C(=O)[*:2]; X5 = N=C(NCCC[C@H](N[*:1])C(=O)[*:2])N[C@@H]1OC[C@@H](O)[C@H](O)[C@H]1O",
  "data": [
    {"assay": "Cytotoxicity against C57BL/6 mouse Pre-Osteoblast cells assessed as cell death upto 5 uM incubated for 4 days by CCK-8 assay", "type": "toxicity, cell-based", "details": "96 h, time 4 day", "values": [
      {"smiles": "CC[C@H](C)[C@H](NC(=O)[C@H](CCC(=O)O)NC(=O)[C@H](CO)NC(=O)[C@@H](NC(=O)[C@H](CO)NC(C)=O)C(C)C)C(=O)N[C@@H](CCC(N)=O)C(=O)N[C@@H](CC(C)C)C(=O)N[C@@H](CCSC)C(=O)N[C@@H](Cc1cnc[nH]1)C(=O)N[C@@H](CC(N)=O)C(=O)N[C@@H](CC(C)C)C(=O)NCC(=O)N[C@@H](CCCCN)C(=O)N[C@@H](Cc1cnc[nH]1)C(=O)N[C@@H](CC(C)C)C(=O)N[C@@H](CC(N)=O)C(=O)N[C@@H](CO)C(=O)N[C@@H](CCSC)C(=O)N[C@@H](CCC(=O)O)C(=O)N[C@@H](CCCNC(=N)N)C(=O)N[C@H](C(=O)N[C@@H](CCC(=O)O)C(=O)N[C@@H](Cc1c[nH]c2ccccc12)C(=O)N[C@@H](CC(C)C)C(=O)N[C@@H](CCCNC(=N)N[C@@H]1O[C@H](CO)[C@@H](O)[C@H](O)[C@H]1NC(C)=O)C(=O)N[C@@H](CCCCN)C(=O)N[C@@H](CCCCN)C(=O)N[C@@H](CC(C)C)C(=O)N[C@@H](CCC(N)=O)C(=O)N[C@@H](CC(=O)O)C(=O)N[C@H](C(=O)N[C@@H](Cc1cnc[nH]1)C(=O)N[C@@H](CC(N)=O)C(=O)N[C@@H](Cc1ccccc1)C(N)=O)C(C)C)C(C)C", "Activity": "Non-Toxic"},
      {"smiles": "CC[C@H](C)[C@H](NC(=O)[C@H](CCC(=O)O)NC(=O)[C@H](CO)NC(=O)[C@@H](NC(=O)[C@H](CO)NC(C)=O)C(C)C)C(=O)N[C@@H](CCC(N)=O)C(=O)N[C@@H](CC(C)C)C(=O)N[C@@H](CCSC)C(=O)N[C@@H](Cc1cnc[nH]1)C(=O)N[C@@H](CC(N)=O)C(=O)N[C@@H](CC(C)C)C(=O)NCC(=O)N[C@@H](CCCCN)C(=O)N[C@@H](Cc1cnc[nH]1)C(=O)N[C@@H](CC(C)C)C(=O)N[C@@H](CC(N)=O)C(=O)N[C@@H](CO)C(=O)N[C@@H](CCSC)C(=O)N[C@@H](CCC(=O)O)C(=O)N[C@@H](CCCNC(=N)N)C(=O)N[C@H](C(=O)N[C@@H](CCC(=O)O)C(=O)N[C@@H](Cc1c[nH]c2ccccc12)C(=O)N[C@@H](CC(C)C)C(=O)N[C@@H](CCCNC(=N)N[C@@H]1O[C@@H](C)[C@H](O)[C@@H](O)[C@H]1O)C(=O)N[C@@H](CCCCN)C(=O)N[C@@H](CCCCN)C(=O)N[C@@H](CC(C)C)C(=O)N[C@@H](CCC(N)=O)C(=O)N[C@@H](CC(=O)O)C(=O)N[C@H](C(=O)N[C@@H](Cc1cnc[nH]1)C(=O)N[C@@H](CC(N)=O)C(=O)N[C@@H](Cc1ccccc1)C(N)=O)C(C)C)C(C)C", "Activity": "Non-Toxic"},
      {"smiles": "CC[C@H](C)[C@H](NC(=O)[C@H](CCC(=O)O)NC(=O)[C@H](CO)NC(=O)[C@@H](NC(=O)[C@H](CO)NC(C)=O)C(C)C)C(=O)N[C@@H](CCC(N)=O)C(=O)N[C@@H](CC(C)C)C(=O)N[C@@H](CCSC)C(=O)N[C@@H](Cc1cnc[nH]1)C(=O)N[C@@H](CC(N)=O)C(=O)N[C@@H](CC(C)C)C(=O)NCC(=O)N[C@@H](CCCCN)C(=O)N[C@@H](Cc1cnc[nH]1)C(=O)N[C@@H](CC(C)C)C(=O)N[C@@H](CC(N)=O)C(=O)N[C@@H](CO)C(=O)N[C@@H](CCSC)C(=O)N[C@@H](CCC(=O)O)C(=O)N[C@@H](CCCNC(=N)N)C(=O)N[C@H](C(=O)N[C@@H](CCC(=O)O)C(=O)N[C@@H](Cc1c[nH]c2ccccc12)C(=O)N[C@@H](CC(C)C)C(=O)N[C@@H](CCCNC(=N)N[C@H]1O[C@H](CO)[C@@H](O)[C@H](O)[C@@H]1O)C(=O)N[C@@H](CCCCN)C(=O)N[C@@H](CCCCN)C(=O)N[C@@H](CC(C)C)C(=O)N[C@@H](CCC(N)=O)C(=O)N[C@@H](CC(=O)O)C(=O)N[C@H](C(=O)N[C@@H](Cc1cnc[nH]1)C(=O)N[C@@H](CC(N)=O)C(=O)N[C@@H](Cc1ccccc1)C(N)=O)C(C)C)C(C)C", "Activity": "Non-Toxic"},
      {"smiles": "CC[C@H](C)[C@H](NC(=O)[C@H](CCC(=O)O)NC(=O)[C@H](CO)NC(=O)[C@@H](NC(=O)[C@H](CO)NC(C)=O)C(C)C)C(=O)N[C@@H](CCC(N)=O)C(=O)N[C@@H](CC(C)C)C(=O)N[C@@H](CCSC)C(=O)N[C@@H](Cc1cnc[nH]1)C(=O)N[C@@H](CC(N)=O)C(=O)N[C@@H](CC(C)C)C(=O)NCC(=O)N[C@@H](CCCCN)C(=O)N[C@@H](Cc1cnc[nH]1)C(=O)N[C@@H](CC(C)C)C(=O)N[C@@H](CC(N)=O)C(=O)N[C@@H](CO)C(=O)N[C@@H](CCSC)C(=O)N[C@@H](CCC(=O)O)C(=O)N[C@@H](CCCNC(=N)N[C@@H]1OC[C@@H](O)[C@H](O)[C@H]1O)C(=O)N[C@H](C(=O)N[C@@H](CCC(=O)O)C(=O)N[C@@H](Cc1c[nH]c2ccccc12)C(=O)N[C@@H](CC(C)C)C(=O)N[C@@H](CCCNC(=N)N[C@@H]1OC[C@@H](O)[C@H](O)[C@H]1O)C(=O)N[C@@H](CCCCN)C(=O)N[C@@H](CCCCN)C(=O)N[C@@H](CC(C)C)C(=O)N[C@@H](CCC(N)=O)C(=O)N[C@@H](CC(=O)O)C(=O)N[C@H](C(=O)N[C@@H](Cc1cnc[nH]1)C(=O)N[C@@H](CC(N)=O)C(=O)N[C@@H](Cc1ccccc1)C(N)=O)C(C)C)C(C)C", "note": "(Ac-SVSEIQLMHNLGKHLNSME[X5]VEWL[X5]KKLQDVHNF-NH2)", "Activity": "Non-Toxic"},
      {"smiles": "CC[C@H](C)[C@H](NC(=O)[C@H](CCC(=O)O)NC(=O)[C@H](CO)NC(=O)[C@@H](NC(=O)[C@H](CO)NC(C)=O)C(C)C)C(=O)N[C@@H](CCC(N)=O)C(=O)N[C@@H](CC(C)C)C(=O)N[C@@H](CCSC)C(=O)N[C@@H](Cc1cnc[nH]1)C(=O)N[C@@H](CC(N)=O)C(=O)N[C@@H](CC(C)C)C(=O)NCC(=O)N[C@@H](CCCCN)C(=O)N[C@@H](Cc1cnc[nH]1)C(=O)N[C@@H](CC(C)C)C(=O)N[C@@H](CC(N)=O)C(=O)N[C@@H](CO)C(=O)N[C@@H](CCSC)C(=O)N[C@@H](CCC(=O)O)C(=O)N[C@@H](CCCNC(=N)N[C@@H]1O[C@H](CO)[C@@H](O)[C@H](O)[C@H]1NC(C)=O)C(=O)N[C@H](C(=O)N[C@@H](CCC(=O)O)C(=O)N[C@@H](Cc1c[nH]c2ccccc12)C(=O)N[C@@H](CC(C)C)C(=O)N[C@@H](CCCNC(=N)N[C@@H]1O[C@H](CO)[C@@H](O)[C@H](O)[C@H]1NC(C)=O)C(=O)N[C@@H](CCCCN)C(=O)N[C@@H](CCCCN)C(=O)N[C@@H](CC(C)C)C(=O)N[C@@H](CCC(N)=O)C(=O)N[C@@H](CC(=O)O)C(=O)N[C@H](C(=O)N[C@@H](Cc1cnc[nH]1)C(=O)N[C@@H](CC(N)=O)C(=O)N[C@@H](Cc1ccccc1)C(N)=O)C(C)C)C(C)C", "note": "(Ac-SVSEIQLMHNLGKHLNSME[X3]VEWL[X3]KKLQDVHNF-NH2)", "Activity": "Non-Toxic"},
      {"smiles": "CC[C@H](C)[C@H](NC(=O)[C@H](CCC(=O)O)NC(=O)[C@H](CO)NC(=O)[C@@H](NC(=O)[C@H](CO)NC(C)=O)C(C)C)C(=O)N[C@@H](CCC(N)=O)C(=O)N[C@@H](CC(C)C)C(=O)N[C@@H](CCSC)C(=O)N[C@@H](Cc1cnc[nH]1)C(=O)N[C@@H](CC(N)=O)C(=O)N[C@@H](CC(C)C)C(=O)NCC(=O)N[C@@H](CCCCN)C(=O)N[C@@H](Cc1cnc[nH]1)C(=O)N[C@@H](CC(C)C)C(=O)N[C@@H](CC(N)=O)C(=O)N[C@@H](CO)C(=O)N[C@@H](CCSC)C(=O)N[C@@H](CCC(=O)O)C(=O)N[C@@H](CCCNC(=N)N[C@@H]1O[C@H](CO)[C@H](O)[C@H](O)[C@H]1O)C(=O)N[C@H](C(=O)N[C@@H](CCC(=O)O)C(=O)N[C@@H](Cc1c[nH]c2ccccc12)C(=O)N[C@@H](CC(C)C)C(=O)N[C@@H](CCCNC(=N)N)C(=O)N[C@@H](CCCCN)C(=O)N[C@@H](CCCCN)C(=O)N[C@@H](CC(C)C)C(=O)N[C@@H](CCC(N)=O)C(=O)N[C@@H](CC(=O)O)C(=O)N[C@H](C(=O)N[C@@H](Cc1cnc[nH]1)C(=O)N[C@@H](CC(N)=O)C(=O)N[C@@H](Cc1ccccc1)C(N)=O)C(C)C)C(C)C", "Activity": "Non-Toxic"},
      {"smiles": "CC[C@H](C)[C@H](NC(=O)[C@H](CCC(=O)O)NC(=O)[C@H](CO)NC(=O)[C@@H](NC(=O)[C@H](CO)NC(C)=O)C(C)C)C(=O)N[C@@H](CCC(N)=O)C(=O)N[C@@H](CC(C)C)C(=O)N[C@@H](CCSC)C(=O)N[C@@H](Cc1cnc[nH]1)C(=O)N[C@@H](CC(N)=O)C(=O)N[C@@H](CC(C)C)C(=O)NCC(=O)N[C@@H](CCCCN)C(=O)N[C@@H](Cc1cnc[nH]1)C(=O)N[C@@H](CC(C)C)C(=O)N[C@@H](CC(N)=O)C(=O)N[C@@H](CO)C(=O)N[C@@H](CCSC)C(=O)N[C@@H](CCC(=O)O)C(=O)N[C@@H](CCCNC(=N)N[C@@H]1O[C@H](CO)[C@@H](O)[C@H]1O)C(=O)N[C@H](C(=O)N[C@@H](CCC(=O)O)C(=O)N[C@@H](Cc1c[nH]c2ccccc12)C(=O)N[C@@H](CC(C)C)C(=O)N[C@@H](CCCNC(=N)N[C@@H]1O[C@H](CO)[C@@H](O)[C@H]1O)C(=O)N[C@@H](CCCCN)C(=O)N[C@@H](CCCCN)C(=O)N[C@@H](CC(C)C)C(=O)N[C@@H](CCC(N)=O)C(=O)N[C@@H](CC(=O)O)C(=O)N[C@H](C(=O)N[C@@H](Cc1cnc[nH]1)C(=O)N[C@@H](CC(N)=O)C(=O)N[C@@H](Cc1ccccc1)C(N)=O)C(C)C)C(C)C", "Activity": "Non-Toxic"},
      {"smiles": "CC[C@H](C)[C@H](NC(=O)[C@H](CCC(=O)O)NC(=O)[C@H](CO)NC(=O)[C@@H](NC(=O)[C@H](CO)NC(C)=O)C(C)C)C(=O)N[C@@H](CCC(N)=O)C(=O)N[C@@H](CC(C)C)C(=O)N[C@@H](CCSC)C(=O)N[C@@H](Cc1cnc[nH]1)C(=O)N[C@@H](CC(N)=O)C(=O)N[C@@H](CC(C)C)C(=O)NCC(=O)N[C@@H](CCCCN)C(=O)N[C@@H](Cc1cnc[nH]1)C(=O)N[C@@H](CC(C)C)C(=O)N[C@@H](CC(N)=O)C(=O)N[C@@H](CO)C(=O)N[C@@H](CCSC)C(=O)N[C@@H](CCC(=O)O)C(=O)N[C@@H](CCCNC(=N)N[C@@H]1O[C@H](CO)[C@@H](O[C@H]2O[C@H](CO)[C@@H](O)[C@H](O)[C@H]2O)[C@H](O)[C@H]1O)C(=O)N[C@H](C(=O)N[C@@H](CCC(=O)O)C(=O)N[C@@H](Cc1c[nH]c2ccccc12)C(=O)N[C@@H](CC(C)C)C(=O)N[C@@H](CCCNC(=N)N[C@@H]1O[C@H](CO)[C@@H](O[C@H]2O[C@H](CO)[C@@H](O)[C@H](O)[C@H]2O)[C@H](O)[C@H]1O)C(=O)N[C@@H](CCCCN)C(=O)N[C@@H](CCCCN)C(=O)N[C@@H](CC(C)C)C(=O)N[C@@H](CCC(N)=O)C(=O)N[C@@H](CC(=O)O)C(=O)N[C@H](C(=O)N[C@@H](Cc1cnc[nH]1)C(=O)N[C@@H](CC(N)=O)C(=O)N[C@@H](Cc1ccccc1)C(N)=O)C(C)C)C(C)C", "Activity": "Non-Toxic"}
    ]}
  ]
}
